# Measured values published in the NIST ThermoML archive (doi:10.1021/acs.jced.6b00112).
# Numbers after ± are expanded uncertainties.
# Assay: refractive index (Na D-line) (dimensionless)
# Conditions: 298.15 K; 101.33 kPa; Liquid; Standard Abbe refractometry
row,refractive index,Compound
1,1.3714 ± 0.0008,CC(=O)O [acetic acid]
2,1.3977 ± 0.0008,CCCC(=O)O [butanoic acid]
3,1.493 ± 0.0008,CCc1ccccc1 [ethylbenzene]
4,1.371 ± 0.0008,O=CO [formic acid]
5,1.3807 ± 0.0008,CCC(=O)O [propanoic acid]
6,1.3324 ± 0.0008,O [water]

# Assay: not given
# Conditions: 298.15 K; 101.33 kPa; Liquid; Vibrating tube method
row,mass density [kg/m3],Compound
1,1044.12 ± 10,CC(=O)O [acetic acid]
2,952.68 ± 10,CCCC(=O)O [butanoic acid]
3,862.51 ± 10,CCc1ccccc1 [ethylbenzene]
4,1219.5 ± 10,O=CO [formic acid]
5,998.04 ± 10,CCC(=O)O [propanoic acid]
